Results published in publication PMC9736344, “Discovery of a Novel Bloom’s Syndrome Protein (BLM) Inhibitor Suppressing Growth and Metastasis of Prostate Cancer” (International Journal of Molecular Sciences, 2022).

Experiments:
[1] = biological target: T1, Bloom's syndrome protein (BLM) helicase (Homo sapiens, UniProt P54132); experiment: fluorescence polarization DNA-binding and unwinding assays, EMSA, malachite green ATPase assay with purified BLM642-1290; CD spectral change; type: biochemical
T1 construct: BLM 642-1290
T1 sequence (P54132 642-1290): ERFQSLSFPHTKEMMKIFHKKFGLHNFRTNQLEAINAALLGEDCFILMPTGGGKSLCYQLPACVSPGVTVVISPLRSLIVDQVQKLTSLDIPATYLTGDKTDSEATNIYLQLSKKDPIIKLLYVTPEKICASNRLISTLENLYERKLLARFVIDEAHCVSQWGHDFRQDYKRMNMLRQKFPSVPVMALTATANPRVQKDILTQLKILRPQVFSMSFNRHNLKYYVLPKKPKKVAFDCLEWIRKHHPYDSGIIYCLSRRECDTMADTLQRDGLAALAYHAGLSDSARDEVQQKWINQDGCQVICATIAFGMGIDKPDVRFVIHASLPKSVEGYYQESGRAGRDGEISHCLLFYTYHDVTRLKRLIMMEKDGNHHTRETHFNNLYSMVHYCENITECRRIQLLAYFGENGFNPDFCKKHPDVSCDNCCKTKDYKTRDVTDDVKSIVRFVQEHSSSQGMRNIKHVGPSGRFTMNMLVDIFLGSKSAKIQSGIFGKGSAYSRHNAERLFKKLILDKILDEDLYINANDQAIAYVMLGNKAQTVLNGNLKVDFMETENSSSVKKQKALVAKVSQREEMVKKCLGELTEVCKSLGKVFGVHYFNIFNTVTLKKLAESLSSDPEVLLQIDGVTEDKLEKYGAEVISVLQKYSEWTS

[2] = biological target: T1, Bloom's syndrome protein (BLM) helicase; experiment: biochemical; design: fluorescence polarization; displacement of fluorescein-dsDNA bound to BLM642-1290; relative DNA binding activity; conditions: dsDNA binding; read-out: % of control remaining
Procedure: First, fluorescein-labeled dsDNA (2 nM) was added into a reaction buffer (20 mM Tris, 25 mM NaCl, 3 mM MgCl2, 0.1 mM DTT, pH 7.9) to detect the fluorescence anisotropy until it was stable. Then, 500 nM BLM^642−1290 was added to equilibrate the DNA substrate, and the fluorescence anisotropy value was then detected. Finally, small molecules with a concentration of 10 μM were added, and the fluorescence anisotropy value was detected until it was stable. The total reaction volume was adjusted to 150 μL by adjusting with ddH2O volume. The ability of AO/854 to inhibit the ability of the BLM^642−1290 to bind to dsDNA and ssDNA was also assessed using a fluorescence polarization assay. The method used was similar to that described above, except different concentrations of AO/854 were added to the reaction. By using the same protocol, we detected AO/854 affecting DNA unwinding of BLM^642−1290. The 0–50 μM concentrations of AO/854 were added to the reaction. In the final step, 0.2 mM of ATP was added to the reaction. The fluorescence anisotropy value was detected until it was stable. The inhibiting ratio of BLM on DNA binding activity and DNA unwinding activity was determined. By using high-throughput virtual and protein-based screening assays, we discovered an isobenzofuranone compound with the desired properties. The flow chart of our work is as follows (Figure 2A). Before the first round of docking using the Autodock Vina, an optimized database (approximately 200,000 compounds) was achieved by filtering using Lipinski’s rule of five and Veber rules and removing duplicate molecules from the Specs database (Figure S1). The top 1000 compounds from the previous step were docked with Autodock (Figure S2). The top 30 small molecules (Table S1) obtained through virtual screening were dissolved in DMSO and prepared into mother liquor at a concentration of 20 mM. We purified a truncated structure of BLM that retained helicase activity in vitro (Figure S3), selected a fluorescein-labeled dsDNA as a substrate, and used a fluorescence polarization assay to determine if the promising compounds disrupted the binding between BLM and DNA.

| IC50 [1] | remaining activity at 10 µM [2] | Structure (SMILES) |
| --- | --- | --- |
| < 10 µM | – | Cc1cc(C2(c3ccc(O)c(C)c3)OC(=O)c3ccccc32)ccc1O [AO/854, AO/854/43447428] |
| – | 98.9% | O=[N+]([O-])c1ccc(S(=O)(=O)Oc2ccc(C3(c4ccc(OS(=O)(=O)c5ccc([N+](=O)[O-])cc5)cc4)c4ccccc4-c4ccccc43)cc2)cc1 [compound 1] |
| – | 31.5% | Cc1cc(C2(c3ccc(O)c(C)c3)OC(=O)c3ccccc32)ccc1O [compound 2] |
| – | 94.9% | Cc1ccc(-c2csc3nc(SCC(=O)Nc4cccc5ccccc45)n(-c4ccccc4)c(=O)c23)o1 [compound 3] |
| – | 103% | CCCCC(OC(=O)c1ccc(N2C(=O)C3C4c5ccccc5C(c5ccccc54)C3C2=O)cc1)C(=O)c1ccc(-c2ccccc2)cc1 (centres unmarked) [compound 10] |
| – | 93.9% | Cc1ccc(-c2csc3nc(SCC(=O)Nc4ccc(C)c(C)c4)n(-c4ccccc4)c(=O)c23)o1 [compound 19] |
| – | 96.6% | O=C1c2cc(S(=O)(=O)Nc3cccc4ccccc34)ccc2-c2ccc(S(=O)(=O)Nc3cccc4ccccc34)cc21 [compound 20] |
| – | 97.3% | CC(=O)Nc1ccc(N2C(=O)c3ccc(C(=O)c4ccc5c(c4)C(=O)N(c4ccc(NC(C)=O)cc4)C5=O)cc3C2=O)cc1 [compound 28] |
